Assay results: patent US8980226B2, “Aerosolized fosfomycin/aminoglycoside combination for the treatment of bacterial respiratory infections” (Gilead Sciences, Inc., priority 2004, dated 2015)

Tested on: P. aeruginosa ATCC 27853
Experiment: MBC/MIC, broth microdilution
Assay type: cell-based
Conditions: aminoglycoside alone
Method: “Minimal bactericidal concentration (MBC)” means the lowest concentration of antibiotic that results in ≧3 Log10 of bacterial killing.
The MICs of amikacin, arbekacin, dibekacin, gentamicin, kanamycin, netilimicin, neomycin, streptomycin, and tobramycin alone were determined for P. aeruginosa ATCC 27853 by the broth-microdilution method according to NCCLS standards (NCCLS, 2003). E. coli ATCC 25922 and S. aureus ATCC 29213 were used as quality control stains. Bacterial strains were streaked onto blood agar plates, and incubated at 35° C. for 18 hours. Two to three bacterial colonies from the overnight cultures were inoculated into 3 mL of sterile normal saline, vortexed briefly, and adjusted to a 0.5 McFarland standard (NCCLS, 2003). The bacterial suspension was diluted 1:100 in cation-adjusted Mueller-Hinton broth (hereafter referred to as CAMHB). Fifty microliters of bacterial inoculum (approximately 2×10^5 CFU/mL) was pipeted into individual wells of 96-well plates containing 50 μl of CAMHB (Remel, Lenexa, Kanas) supplemented with 2-fold dilutions of antibiotics ranging in concentration from 0.125 μg/mL to 128 μg/mL. The MIC was defined as the lowest concentration of antibiotic (s) that prevented visible growth after incubation at 35° C. for 18-24 hours.
The MBCs of fosfomycin, amikacin, arbekacin, dibikacin, gentamicin, kanamycin B, netilimicin, neomycin, streptomycin, or tobramycin alone for P. aeruginosa ATCC 27853, E. coli ATCC 25922, and S. aureus ATCC 29213 were determined by the broth microdilution method according to NCCLS standards (NCCLS, 1999). Bacterial strains were streaked onto blood agar plates and incubated at 35° C. for 18-24 hours. Two to three bacterial colonies from the overnight cultures were inoculated into 3 mL of sterile normal saline, vortexed briefly, and adjusted to a 0.5 McFarland standard (NCCLS, 2003). Fifty microliters of bacterial inoculum (approximately 2×10^5 CFU/mL) was pipeted into individual wells of 96-well plates containing 50 μl of CAMHB (Remel, Lenexa, Kanas) supplemented with 2-fold dilutions of antibiotics ranging in concentration from 0.125 μg/mL to 128 μg/mL. Plates were incubated at 35° C. for 18-24 hours and MIC determined as described in Example 5, Method C. The contents of wells showing no growth (MIC and above) were mixed with a pipetor and duplicate 10 μl samples spread onto blood agar plates. Culture plates were incubated at 35° C. for 18-24 hours and the number of bacterial colonies on each plate enumerated manually. Rejection values were determined by NCCLS methods which considers the final inoculum size, single or double sampling, pipetting error, and the Poisson distribution of sample responses (NCCLS, 1999). […] The MBC was defined as the ≧3 Log10 decrease in CFU/mL of the original inoculum as described by NCCLS standards (NCCLS, 1999). The MBC/MIC ratios were calculated by dividing the MBC by the MIC.

| Molecule | MBC/MIC Aminoglycoside |
| --- | --- |
| NCC[C@H](O)C(=O)N[C@@H]1C[C@H](N)[C@@H](O[C@H]2O[C@H](CN)[C@@H](O)[C@H](O)[C@H]2O)[C@H](O)[C@H]1O[C@H]1O[C@H](CO)[C@@H](O)[C@H](N)[C@H]1O [Amikacin, amikacin] | 2 |
| NC[C@@H]1CC[C@@H](N)[C@@H](O[C@H]2[C@H](O)[C@@H](O[C@H]3O[C@H](CO)[C@@H](O)[C@H](N)[C@H]3O)[C@H](N)C[C@@H]2N)O1 [Dibekacin, dibekacin] | 1 |
| neomycin | 2 |
| gentamicin | 2 |
| NCC[C@H](O)C(=O)N[C@@H]1C[C@H](N)[C@@H](O[C@H]2O[C@H](CN)CC[C@H]2N)[C@H](O)[C@H]1O[C@H]1O[C@H](CO)[C@@H](O)[C@H](N)[C@H]1O [Arbekacin, arbekacin] | 1 |
| CCN[C@@H]1C[C@H](N)[C@@H](O[C@H]2OC(CN)=CC[C@H]2N)[C@H](O)[C@H]1O[C@H]1OC[C@](C)(O)[C@H](NC)[C@H]1O [Netilimicin, netilmicin] | 1 |
| [H]/N=C(/N)N[C@H]1[C@H](O)[C@@H](O)[C@H](O[C@@H]2O[C@@H](C)[C@](O)(C=O)[C@H]2O[C@@H]2O[C@@H](CO)[C@H](O)[C@@H](O)[C@@H]2NC)[C@@H](N/C(N)=N\[H])[C@@H]1O [Streptomycin, streptomycin] | 4 |
